Tested on: human Kv3.1 channels
Assay: Kv3.1 channel modulation, IonWorks Quattro planar array electrophysiology in HEK-hKv3.1 cells
Assay type: cell-based
Conditions: hKv3.1 HEK cells, -15 mV step
Excerpt: The ability of the compounds of the invention to modulate the voltage-gated potassium channel subtypes Kv3.3/Kv3.2/Kv3.1 may be determined using the following assay. Analogous methods may be used to investigate the ability of the compounds of the invention to modulate other channel subtypes.
To assess compound effects on human Kv3.1 channels (hKv3.1): Human embryonic kidney (HEK)-hKv3.1 cell line is generated by transfecting HEK-293 cells with an expression vector with human Kv3.1 (NM_004976.4). Cells are cultured with MEM supplemented with 10% Heat-Inactivated FBS, 2 mM L-glutamine, 1% Penicillin-Streptomycin, and 0.6 mg/ml of Geneticin (G418). HEK-hKv3.1b cells were amplified in T175 cm2 flask at 37° C. with 5% CO2, using MEM amplification medium, containing the G418 selection antibiotic (0.6 mg/ml). Cells were detached every 3-4 days, using DPBS to wash twice the flask, then TrypLE to dislodge the cells, and re-plated at a density of 2-4×10^6 cells/flask.
The day of the experiment, cells are removed from the incubator and the culture medium removed. […]
Experiments are conducted at r.t. using IonWorks Quattro™ planar array electrophysiology technology (Molecular Devices Corp.) with PatchPlate™ PPC. […] Planar electrode hole resistances (Rp) are determined by applying a 10 mV voltage step across each well. […]

Kv3.1 pEC50 (EC50 = 50% of maximum increase by reference compound): 5.10
Compound: CC[C@@H]1NC(=O)N(c2cnc(Oc3ccc(C)c4c3C3(CC3)CO4)cn2)C1=O [Example 15, (5S)-5-ethyl-3-[5-(7-methylspiro[2H-benzofuran-3,1′-cyclopropane]-4-yl)oxypyrazin-2-yl]imidazolidine-2,4-dione]
Kv3.1 max R % (normalised to maximum effect of reference compound (50 microM)): 136%
